As usually defined, the IC50 is the concentration at which inhibition is half-maximal. High values mean lower potency, low ones higher potency.

The test system of experiment [1] is human liver cancer cells (HepG-2). The experiment in a line: MTT cytotoxicity assay, HepG-2. Format: cell-based. The note with it: 72-h incubation. The procedure: (§1) The above cells were tested for cytotoxicity to identify the most promising antitumor drug among the synthesized quinazolinone derivatives.
(§2) An MTT assay was used to evaluate the in vitro cytotoxicity of the new compounds. The MTT assay depends on the reduction of soluble 3-([…])-2,5-diphenyl-tetrazolium bromide (MTT) into a blue purple formazan product, mainly by mitochondrial reductase activity inside living cells. […] The cells were suspended in growth medium and plated in 96-well culture plates at a density of 4 × 10^4 cells/well and incubated at 37 °C in a 5% CO2 incubator. […] Each experiment was performed at least 3 times.
(In general: Formazan colour is commonly taken as a measure of viable cells.)

Experiment [2] relates to breast cancer cells (MDA-MB-231). The experiment in a line: MTT cytotoxicity assay, MDA-MB-231. The class given is cell-based, human. Conditions: 72-h incubation. The procedure: as §1, §2
Experiment [3] deals with ovarian cancer cells (A2780). The experiment in a line: MTT cytotoxicity assay, A2780. Format: cell-based, human. The note with it: 72-h incubation. As for the experimental part: as §1, §2
The subject of experiment [4] is human hepatic stellate cells (LX-2). In words: MTT cytotoxicity assay, LX-2 normal control. The class given is cell-based. Conditions: 72-h incubation. The procedure:
as §1, §2

A short description of experiment [5]: DPPH• free radical scavenging assay. Conditions: for IC50: concentration required to scavenge 50% of the DPPH, 30 min in the dark. The procedure: The quinazolinone derivatives were evaluated for their free radical scavenging activity at 320, 160, 80, 40, 20, and 10 µM concentration using the DPPH radical method, with ascorbic acid as the positive control (Table 3).
The antiradical activity of the compounds was estimated according to a slight modification of the procedure reported by Morales and Jimenez-Perez. […] Each sample (100 μL) at a different concentration was added to a freshly prepared solution of 1,1-diphenyl-2-picrylhydrazyl (DPPH•) radical (0.2 mM, 100 μL). The mixtures (200 μL) were placed in a 96-well microplate, shaken vigorously, and then left to stand for 30 min in the dark. Then, absorbance was immediately measured at a wavelength of 517 nm. Vc was used as the standard. The antiradical activity for each compound was determined in the Vc equivalent antioxidant capacity. The DPPH• solution in the presence of ethanol and in the absence of compounds was tested and used as a negative control. […] In all experiments, the samples were analyzed in triplicate, and activity for each compound was presented as the mean value ± SEM and used for evaluation of structure–activity relationships. […] Absorbance was taken at 520 nm using a microplate reader (Tecan, Männedorf, Switzerland).

Bounds are passed on as bounds.

Turning to `Cc1ccc(C(=O)Nc2ccc3c(c2)C(CC(=O)NC(CO)C(N)=O)NC(=O)N3CCCN)cc1` (centres unmarked) [CA1-c, 3-{4-{2-[(1-amino-3-hydroxy-1-oxopropan-2-yl)amino]-2-oxoethyl}-6-(4-methylbenzamido)-2-oxo-3,4-dihydroquinazolin-1(2H)-yl}propan-1-aminium 2,2,2-trifluoroacetate], the IC50 was 48.1 ± 2.34 µM in experiment [1]; less than 50 µM in experiment [1] (Homo sapiens, HepG2, 72 h); 92.4 ± 4.91 µM in experiment [2] (Homo sapiens); greater than 100 µM in experiment [3] (Homo sapiens, A2780, 72 h); 85.4 ± 1.78 µM in experiment [4] (Homo sapiens); 387 ± 58.8 µM in experiment [5].
`NCCCN1C(=O)NC(CC(=O)NC(CO)C(N)=O)c2cc([N+](=O)[O-])ccc21` (centres unmarked) [CA1-6, 3-{4-{2-[(1-amino-3-hydroxy-1-oxopropan-2-yl)amino]-2-oxoethyl}-6-nitro-2-oxo-3,4-dihydroquinazolin-1(2H)-yl}propan-1-aminium 2,2,2-trifluoroacetate]: the IC50 in experiment [1] (Homo sapiens, HepG2, 72 h) was 52.3 ± 3.45 µM; in experiment [2] (Homo sapiens), 81.2 ± 1.54 µM; in experiment [3] (Homo sapiens, A2780, 72 h), 83.2 ± 2.69 µM; in experiment [4] (Homo sapiens), 97.9 ± 15.6 µM; in experiment [5] it was greater than 1000 µM.
Turning to `NCCCN1C(=O)NC(CC(=O)NC(CO)C(N)=O)c2cc(NC(=O)c3ccc(F)cc3)ccc21` (centres unmarked) [CA1-d, 3-{4-{2-[(1-amino-3-hydroxy-1-oxopropan-2-yl)amino]-2-oxoethyl}-6-(4-fluorobenzamido)-2-oxo-3,4-dihydroquinazolin-1(2H)-yl}propan-1-aminium 2,2,2-trifluoroacetate], the IC50 is 49.6 ± 1.91 µM in experiment [1]; less than 50 µM in experiment [1] (Homo sapiens, HepG2, 72 h); 85.7 ± 4.87 µM in experiment [2] (Homo sapiens); 88.3 ± 8.56 µM in experiment [3] (Homo sapiens, A2780, 72 h); greater than 100 µM in experiment [4] (Homo sapiens); greater than 1000 µM in experiment [5].
Take `NCCCN1C(=O)NC(CC(=O)NC(CO)C(N)=O)c2cc(NC(=O)c3ccccc3)ccc21` (centres unmarked) [CA1-b, 3-{4-{2-[(1-amino-3-hydroxy-1-oxopropan-2-yl)amino]-2-oxoethyl}-6-benzamido-2-oxo-3,4-dihydroquinazolin-1(2H)-yl}propan-1-aminium 2,2,2-trifluoroacetate]: the 50% inhibitory concentration (IC50) was 60.1 ± 3.88 µM in experiment [1] (Homo sapiens, HepG2, 72 h); 76.6 ± 2.42 µM in experiment [2] (Homo sapiens); greater than 100 µM in experiment [3] (Homo sapiens, A2780, 72 h); 85.8 ± 4.28 µM in experiment [4] (Homo sapiens); greater than 1000 µM in experiment [5].
Turning to `NCCCN1C(=O)NC(CC(=O)NC(CO)C(N)=O)c2cc(NC(=O)Cc3cccs3)ccc21` (centres unmarked) [CA1-i, 3-{4-{2-[(1-amino-3-hydroxy-1-oxopropan-2-yl)amino]-2-oxoethyl}-2-oxo-6-[2-(thiophen-2-yl)acetamido]-3,4-dihydroquinazolin-1(2H)-yl}propan-1-aminium 2,2,2-trifluoroacetate], the IC50 in experiment [1] (Homo sapiens, HepG2, 72 h) is 49.77 ± 0.12 µM; in experiment [2] (Homo sapiens) it was 89.7 ± 3.79 µM; in experiment [3], 34.4 ± 5.61 µM; in experiment [3] (Homo sapiens, A2780, 72 h), less than 40 µM; in experiment [4] (Homo sapiens), greater than 100 µM; in experiment [5], 557 ± 24.5 µM.
In the case of `CN1C(=O)NC(CC(N)=O)c2cc(NC(=O)COc3ccccc3)ccc21` (centres unmarked) [CA6-b, N-[4-(2-amino-2-oxoethyl)-1-methyl-2-oxo-1,2,3,4-tetrahydroquinazolin-6-yl]-2-phenoxyacetamide], the IC50 in experiment [1] (Homo sapiens, HepG2, 72 h) is 88 ± 1.39 µM; in experiment [2] (Homo sapiens), greater than 100 µM; in experiment [3] (Homo sapiens, A2780, 72 h), greater than 100 µM; in experiment [4] (Homo sapiens), greater than 100 µM; in experiment [5] it was greater than 1000 µM.
As to `NCCCN1C(=O)NC(CC(=O)NC(CO)C(N)=O)c2cc(NC(=O)COc3ccccc3)ccc21.O=C(O)C(F)(F)F` (centres unmarked) [CA1-g, 3-{4-{2-[(1-amino-3-hydroxy-1-oxopropan-2-yl)amino]-2-oxoethyl}-2-oxo-6-(2-phenoxyacetamido)-3,4-dihydroquinazolin-1(2H)-yl}propan-1-aminium 2,2,2-trifluoroacetate], the IC50 in experiment [1] is 45.4 ± 0.59 µM; in experiment [1] (Homo sapiens, HepG2, 72 h), less than 50 µM; in experiment [2] (Homo sapiens) it was 82.21 ± 0.59 µM; in experiment [3], 24.9 ± 7.22 µM; in experiment [3] (Homo sapiens, A2780, 72 h), less than 40 µM; in experiment [4] (Homo sapiens), greater than 100 µM. The same molecule returned an IC50 in experiment [5] greater than 1000 µM. Further, the “antioxidant activity (in words)” value in experiment [5] (DPPH assay) is given as “no antioxidant activity”.
Regarding `CN1C(=O)N(S(=O)(=O)c2ccccc2F)C(CC(N)=O)c2cc(NS(=O)(=O)c3ccccc3F)ccc21` (centres unmarked) [CA7-b′, 2-{6-[(2-fluorophenyl)sulfonamido]-3-[(2-fluorophenyl)sulfonyl]-1-methyl-2-oxo-1,2,3,4-tetrahydroquinazolin-4-yl}acetamide], the IC50 in experiment [1] (Homo sapiens, HepG2, 72 h) is 95.3 ± 5.47 µM; in experiment [2] (Homo sapiens) it was greater than 100 µM; in experiment [3] (Homo sapiens, A2780, 72 h), greater than 100 µM; in experiment [4] (Homo sapiens) it was greater than 100 µM; in experiment [5], greater than 1000 µM.
Regarding `NCCCN1C(=O)NC(CC(=O)NC(CO)C(N)=O)c2cc(N)ccc21` (centres unmarked) [CA1-7, 4-{2-[(1-amino-3-hydroxy-1-oxopropan-2-yl)amino]-2-oxoethyl}-1-(3-ammoniopropyl)-2-oxo-1,2,3,4-tetrahydroquinazolin-6-aminium 2,2,2-trifluoroacetate], the IC50 is 59.3 ± 1.85 µM in experiment [1] (Homo sapiens, HepG2, 72 h); 90.1 ± 10.9 µM in experiment [2] (Homo sapiens); 79.8 ± 1.01 µM in experiment [3] (Homo sapiens, A2780, 72 h); greater than 100 µM in experiment [4] (Homo sapiens); 57.99 ± 0.38 µM in experiment [5].
With `COc1ccccc1S(=O)(=O)Nc1ccc2c(c1)C(CC(N)=O)NC(=O)N2C` (centres unmarked) [CA7-a, 2-{6-[(2-methoxyphenyl)sulfonamido]-1-methyl-2-oxo-1,2,3,4-tetrahydroquinazolin-4-yl}acetamide], the concentration for half-maximal inhibition (IC50) in experiment [1] (Homo sapiens, HepG2, 72 h) was 86.4 ± 3.42 µM; in experiment [2] (Homo sapiens), 87.7 ± 2.58 µM; in experiment [3] (Homo sapiens, A2780, 72 h) it was 82.9 ± 2.68 µM; in experiment [4] (Homo sapiens), greater than 100 µM; in experiment [5], greater than 1000 µM.
For the molecule `O=C1O[C@H]([C@@H](O)CO)C(O)=C1O` [Vc, ascorbic acid, reference compound], in experiment [5], the IC50 came out at 22.5 ± 0.57 µM.
As to “4-{2-{1-(3-ammoniopropyl)-2-oxo-6-[2-(thiophen-2-yl)acetamido]-1,2,3,4-tetrahydroquinazolin-4-yl}acetamido}-4-carbamoylpiperidin-1-aminium 2,2,2-trifluoroacetate [CA5]”, the IC50 in experiment [1] was 65.5 ± 3.16 µM; in experiment [2], 74.81 ± 0.27 µM; in experiment [3], 32.3 ± 6.21 µM; in experiment [4], greater than 100 µM; in experiment [5], 465 ± 8.61 µM.
Regarding `NCCCN1C(=O)NC(CC(=O)NC(CO)C(N)=O)c2cc(NC(=O)CCc3cccnc3)ccc21` (centres unmarked) [CA1-h, 3-{4-{2-[(1-amino-3-hydroxy-1-oxopropan-2-yl)amino]-2-oxoethyl}-2-oxo-6-[3-(pyridin-3-yl)propanamido]-3,4-dihydroquinazolin-1(2H)-yl}propan-1-aminium 2,2,2-trifluoroacetate], the IC50 in experiment [1] (Homo sapiens, HepG2, 72 h) was 56.93 ± 0.47 µM; in experiment [2] (Homo sapiens) it was 82.2 ± 11.4 µM; in experiment [3] (Homo sapiens, A2780, 72 h) it was 86.1 ± 3.73 µM; in experiment [4] (Homo sapiens), 97.5 ± 3.52 µM; in experiment [5], greater than 1000 µM.
For `CN1C(=O)NC(CC(N)=O)c2cc(NC(=O)c3cccnc3)ccc21` (centres unmarked) [CA6-a, N-[4-(2-amino-2-oxoethyl)-1-methyl-2-oxo-1,2,3,4-tetrahydroquinazolin-6-yl]nicotinamide], the IC50 in experiment [1] (Homo sapiens, HepG2, 72 h) is greater than 100 µM; in experiment [2] (Homo sapiens), greater than 100 µM; in experiment [3] (Homo sapiens, A2780, 72 h) it was greater than 100 µM; in experiment [4] (Homo sapiens), greater than 100 µM; in experiment [5], greater than 1000 µM.
In the case of `COc1ccccc1S(=O)(=O)Nc1ccc2c(c1)C(CC(=O)NC(CO)C(N)=O)NC(=O)N2CCCN` (centres unmarked) [CA1-j, 3-{4-{2-[(1-amino-3-hydroxy-1-oxopropan-2-yl)amino]-2-oxoethyl}-6-[(2-methoxyphenyl)sulfonamido]-2-oxo-3,4-dihydroquinazolin-1(2H)-yl}propan-1-aminium 2,2,2-trifluoroacetate], the half-inhibitory concentration (IC50) in experiment [1] (Homo sapiens, HepG2, 72 h) is 73.8 ± 1.03 µM; in experiment [2] (Homo sapiens) it was 76.3 ± 2.05 µM; in experiment [3] (Homo sapiens, A2780, 72 h), 83.6 ± 1.24 µM; in experiment [4] (Homo sapiens), greater than 100 µM; in experiment [5] it was greater than 1000 µM.

Source of the values: paper PMC9737648, “Novel Approaches for the Solid-Phase Synthesis of Dihydroquinazoline-2(1H)-One Derivatives and Biological Evaluation as Potential Anticancer Agents” (Molecules, 2022).
